Source: paper PMC7693160 (Pharmaceutics, 2020)

Assay: Model-based analysis of in vitro dissolution data (DLM, SIVA)
Assay type: physicochemical
Text: The dissolution rate of spherical particles under sink and non-sink conditions within SIVA is described by an extension of the diffusion layer model (DLM) developed by Wang and Flanagan (Equation (3)). (3) DRt=-[…] where DRt is the dissolution rate at time t, N is the number of particles in a given particle size bin, and SDLM is a lumped correction scalar without regard to the mechanistic origin of the correction to the DLM. The SDLM estimates obtained with SIVA can be applied to the Simcyp PBPK simulator to reflect differences between media or formulations by simulating the respective in vivo dissolution; Deff is the effective diffusion coefficient; […] represent the thickness of the hydrodynamic boundary layer and the particle radius at time t, respectively; Ssurfacet corresponds to the saturation solubility at the particle surface (which may be different to the bulk fluid solubility, as discussed below); and Cbulkt is the concentration of dissolved drug in bulk solution at time t. The […] calculated by the fluid dynamics sub-model, which enables the hydrodynamic conditions to be described according to local conditions and stirring rate. Fluid dynamics-based […] recommended option for describing the hydrodynamics, as it permits a more rational translation of estimated parameters such as the SDLM to in vivo conditions, in which the hydrodynamics are usually quite different to in vitro experiments. […] Since the in vitro dissolution media have a somewhat […] buffer capacity than the intestinal fluids, the self-buffering effect at the solid surface can be underestimated. For this reason, the surface pH was calculated and directly input into SIVA. The calculation of the surface pH is based on the model first proposed by Mooney et al., which assumes that dissolution is the result of both chemical reaction between the conjugate base of the buffer species and the hydrogen cations released from the dissolving drug (in this case FLU) at the liquid-solid interface and the diffusion of the dissolved particles to the bulk. This model is very similar to the quasi-equilibrium model published by Ozturk et al., a derivative of which is implemented in SIVA as the default option for surface pH calculations. By fitting the DLM model to the observed dissolution data, we obtained SDLM estimates for each dissolution and two-stage test. In the case of two-stage testing, different SDLM values were obtained for the gastric and intestinal compartments, accounting for the changes in the respective in vitro conditions. Under fasted state intestinal conditions, FLU is freely soluble and therefore dissolution is not expected to be solubility limited. In that case, disintegration of the solid dosage form in the intestinal dissolution medium might be the rate-limiting step for the in vitro dissolution rate, especially in single dissolution experiments where the dosage form is directly exposed to the intestinal medium without any pre-treatment in a gastric medium. […] For the two-stage test experiments, the option was kept deactivated since disintegration in the stomach is already accounted for by the dissolution in the gastric medium. Both gastric and intestinal phases of the two-stage results were modelled simultaneously using the serial dilution model, which can account for more than one in vitro dissolution condition in the same experiment. Estimation of the relevant parameters was performed using the Nelder-Mead algorithm and equal weighting was applied. […]

SMILES: CC(C(=O)O)c1ccc(-c2ccccc2)c(F)c1 (centres unmarked) [flurbiprofen]
- SDLM (95% CI) (FaSSGF Level III): 0.0218 (0.0161–0.0274)
- SDLM (95% CI) (FaSSIF V3 Level I, listed as API): 0.00185
- SDLM (95% CI) (FaSSIF V3 Level I, listed as API Powder): 0.00185 (0.001–0.00312)
- SDLM (95% CI) (FaSSIF V3 Level II): 0.0965 (0.0544–0.139)
- SDLM (95% CI) (Ph. Eur. Phosphate Buffer): 0.00542 (0.00468–0.00617)
